Type in all cases: functional
Assay [1] concerns Staphylococcus aureus. Kind of assay: Antibacterial activity against methicillin-resistant Staphylococcus aureus assessed as bacterial growth inhibition by agar dilution method.
For assay [2], the system named is Acinetobacter baumannii. Kind of assay: Antibacterial activity against Acinetobacter baumannii assessed as bacterial growth inhibition incubated for 18 hrs by absorbance based assay.
Assay [3] relates to Escherichia coli. Kind of assay: Antibacterial activity against Escherichia coli assessed as bacterial growth inhibition incubated for 18 hrs by absorbance based assay.
Assay [4] has as its system Staphylococcus aureus. Kind of assay: Antibacterial activity against methicillin-resistant Staphylococcus aureus assessed as bacterial growth inhibition incubated for 18 hrs by absorbance based assay.
Another assay has as its system Klebsiella pneumoniae. Kind of assay: Antibacterial activity against multi-drug Klebsiella pneumoniae assessed as bacterial growth inhibition incubated for 18 hrs by absorbance based assay.
In assay [5] the test system is Staphylococcus aureus. Kind of assay: Antibacterial activity against Ciprofloxacin-resistant Staphylococcus aureus assessed as bacterial growth inhibition.
Assay [6] deals with Acinetobacter baumannii. Kind of assay: Antibacterial activity against Ciprofloxacin-resistant Acinetobacter baumannii assessed as bacterial growth inhibition.
The subject of assay [7] is Escherichia coli. Kind of assay: Antibacterial activity against Ciprofloxacin-resistant Escherichia coli assessed as bacterial growth inhibition.
Assay [8] deals with Escherichia coli. Kind of assay: Potency index, ratio of Streptomycin MIC to test compound MIC for antibacterial activity against Escherichia coli JM109 assessed as bacterial growth inhibition incubated for 18 to 20 hrs by broth microdilution method. The settings on record: time 18-20 hrs.
The test system of assay [9] is Bacillus subtilis. Kind of assay: Potency index, ratio of Streptomycin MIC to test compound MIC for antibacterial activity against Bacillus subtilis assessed as bacterial growth inhibition incubated for 18 to 20 hrs by broth microdilution method. The settings on record: time 18-20 hrs.
Assay [10] concerns Bacillus subtilis. Kind of assay: Antibacterial activity against Bacillus subtilis assessed as bacterial growth inhibition incubated for 18 to 20 hrs by broth microdilution method. The following applies: time 18-20 hrs.
The test system of assay [11] is Escherichia coli. Kind of assay: Antibacterial activity against Escherichia coli JM109 assessed as bacterial growth inhibition incubated for 18 to 20 hrs by broth microdilution method. The settings on record: time 18-20 hrs.
Assay [12] has as its system Staphylococcus aureus. Kind of assay: Antibacterial activity against methicillin-resistant Staphylococcus aureus assessed as bacterial growth inhibition.
In assay [13] the test system is Staphylococcus aureus. Kind of assay: Antibacterial activity against Staphylococcus aureus MTCC 7443 assessed as bacterial growth inhibition incubated for 24 hrs by serial dilution method.
For assay [14], the system named is Bacillus subtilis. Kind of assay: Antibacterial activity against Bacillus subtilis MTCC 441 assessed as bacterial growth inhibition incubated for 24 hrs by serial dilution method.
Assay [15] deals with Escherichia coli. Kind of assay: Antibacterial activity against Escherichia coli ATCC 25922 assessed as bacterial growth inhibition incubated for 18 to 24 hrs by turbidimetry. The settings on record: time 18-24 hrs.
A further assay has as its system Pseudomonas aeruginosa. Kind of assay: Antibacterial activity against Pseudomonas aeruginosa ATCC 27853 assessed as bacterial growth inhibition incubated for 18 to 24 hrs by turbidimetry. The settings on record: time 18-24 hrs.
Assay [16] deals with Bacillus subtilis. Kind of assay: Antibacterial activity against Bacillus subtilis ATCC 6633 assessed as bacterial growth inhibition incubated for 18 to 24 hrs by turbidimetry. The settings on record: time 18-24 hrs.
The test system of assay [17] is Staphylococcus aureus. Kind of assay: Antibacterial activity against Staphylococcus aureus ATCC 25923 assessed as bacterial growth inhibition incubated for 18 to 24 hrs by turbidimetry. The following applies: time 18-24 hrs.
The subject of assay [18] is Staphylococcus aureus. Kind of assay: Antibacterial activity against Staphylococcus aureus assessed as bacterial growth inhibition by broth dilution method.
Assay [19] relates to Staphylococcus epidermidis. Kind of assay: Potency index, ratio of streptomycin MIC to test compound MIC for antibacterial activity against Staphylococcus epidermidis assessed as bacterial growth inhibition by broth dilution method.
In assay [20] the test system is Staphylococcus epidermidis. Kind of assay: Antibacterial activity against Staphylococcus epidermidis assessed as bacterial growth inhibition by broth dilution method.
Assay [21] deals with Staphylococcus aureus. Kind of assay: Potency index, ratio of streptomycin MIC to test compound MIC for antibacterial activity against Staphylococcus aureus assessed as bacterial growth inhibition by broth dilution method.

The structures appear in SMILES notation. ≈ marks a conversion by molar mass, not a printed value.

The values that follow come from ChEMBL document CHEMBL5344406, “1,2,3-Triazole-containing hybrids with potential antibacterial activity against ESKAPE pathogens” (2022).

Regarding `COc1cc(/C=C/c2ccc(OCc3cn(-c4ccc(C(=O)O)cc4)nn3)cc2)cc(OC)c1`, the minimal inhibitory concentration (MIC) in the assay with Staphylococcus aureus [1] came out at 1.2 µg/mL (≈ 2.62 µM).

Consider `Cc1ccc(S(=O)(=O)OCCn2cc(COc3cccc4cccnc34)nn2)cc1`, for which the MIC in the assay on Acinetobacter baumannii [2], in the assay on Escherichia coli [3], in the assay on Staphylococcus aureus [4] and in the assay on Klebsiella pneumoniae was 75.4 µg/mL (≈ 178 µM) throughout.

Consider `CCOc1c(NC(=O)c2ccc(NC(=O)c3ccc(NC(=O)[C@H](Cc4c[nH]nn4)NC(=O)/C(C)=C/c4ccc(O)cc4)cc3)c(OCC)c2O)ccc(C(=O)O)c1O`, for which the MIC in the assay on Staphylococcus aureus [5], with Acinetobacter baumannii [6] and with Escherichia coli [7] was 0.031 µg/mL (≈ 0.0391 µM) throughout.

In the case of `Cc1cc2cc(C#CCCCCCCc3cn(C4(C(C)C)Oc5cc6oc(=O)ccc6cc5C4=O)nn3)c(=O)oc2cc1O` (stereo not drawn), the Ratio with Escherichia coli [8] is 6.7; in the assay with Bacillus subtilis [9] it was 100. The MIC was determined as 0.02 µg/mL (≈ 0.0337 µM) with Bacillus subtilis [10] and 0.15 µg/mL (≈ 0.253 µM) in the assay on Escherichia coli [11].

Take `O=C1C(=O)N(CCn2cc(COc3cccc4cccnc34)nn2)c2c(Br)cc(Br)cc21`: in the assay with Staphylococcus aureus [12], the minimal inhibitory concentration (MIC) turned out to be 15.2 µg/mL (≈ 27.3 µM).

For `CC(C)(NS(=O)(=O)c1ccc(Br)cc1)c1cn(-c2ccc(Br)cc2)nn1`, the MIC in the assay on Staphylococcus aureus [13] and in the assay on Bacillus subtilis [14] was 12.5 µg/mL (≈ 25 µM) throughout.

On to `Nc1c(C(=O)N2CCN(c3cc4c(cc3F)c(=O)c(C(=O)O)cn4C3CC3)CC2)nnn1-c1ccccc1`, for which the MIC with Escherichia coli [15], in the assay with Pseudomonas aeruginosa, with Bacillus subtilis [16] and with Staphylococcus aureus [17] was 15.6 µg/mL (≈ 30.1 µM) in each case.

For the molecule `CC1(C)O[C@@H]2[C@@H](CC[C@]3(COC(C)(C)O3)[C@H]2OCc2cn(-c3cccc4ccccc34)nn2)O1`, the minimum inhibitory concentration (MIC) with Staphylococcus aureus [18] was determined as 2.34 µg/mL (≈ 5.03 µM); in assay [20] it was 1.17 µg/mL (≈ 2.51 µM). Besides, the Ratio (in assay [19]; in the assay on Staphylococcus aureus [21]) was 4 in each case.
